Columns and labels:
[1] = system: DAT-Cre mice with +HTP or ddHTP in VTA dopamine neurons; assay: locomotor speed after infusion into the VTA of DAT-Cre mice; assay type: in vivo, mouse; settings: for running / locomotor speed, +HTP mice: 10:1 mixture with Alexa647.1DART.2, 1.2 μL of 10 μM into the VTA; for running / locomotor speed, ddHTP mice: same dose
Text: (FIG. 4A) Validation of gabazine.1^DART.2 in cerebellar slice. Top: voltage-clamp schematic. Bottom: tonic GABAAR in granule cells expressing ^+HTP or ^ddHTP. […] Data are mean±SEM, cells normalized to baseline. (FIG. 4B) In vivo delivery of gabazine.1^DART.2 to cerebellar granule cells. Top right: schematic of experimental approach, GCaMP6f granule-cell activity obtained in the absence of sensory stimuli. Top left: example field of view, GCaMP6f signal averaged across trials. Bottom: example calcium traces (ΔF/F) in an awake ^+HTP mouse before (baseline) and after (1 μL of 1 μM gabazine.1^DART.2) infusion. (FIG. 4C) In vivo, 1 μL of 1 μM gabazine.1^DART.2 to ^+HTP mice. Color indicates ΔF/F, each row is one cell before (left) and after (right) gabazine.1^DART.2 infusion. […] (FIG. 4D) In vivo, 1 μL of 1 μM gabazine.1^DART.2 to ^ddHTP mice. Format as in panel C. […] (FIG. 4E) Validation of gabazine.7^DART.2 in VTA slice. Top: evoked-IPSC configuration. […] Data are mean±SEM, cells normalized to baseline. […] Data are mean±SEM, normalized to baseline speed of each animal.
Behavioral assays: Assays were performed at least 3 weeks after viral injection to allow for recombinant protein expression. Mice were acclimated to head-fixation for 3 consecutive days prior to behavioral experiments. Reagents were infused into the brain via the cranial cannula. Immediately following infusion, mice were placed into open-field chambers (27 cm×27 cm) in the dark, and behavior was recorded using infrared video.
A practical issue for intrinsically active neurons is that one can no longer leverage the concept of a floor-effect (i.e., silencing an already quiet neuron), making it difficult to apply optogenetic principles of necessity and sufficiency. Thus, it was sought to examine the technical feasibility of using DART to block neurotransmitter signaling onto these cells; in essence, preventing extrinsic neurotransmitter modulation of dopamine neurons, without disrupting their intrinsic rhythm. Moreover, it was sought to use behavior as the readout, which would likely require manipulation of more cells over a larger brain volume than in the prior experiment. Given this goal, a wide dosing window is key, and thus effort was focused on gabazine.7DART.2, with expression of AAV DIO +HTPGPI or AAV DIO ddHTPGPI in DAT-Cre mice. […] Next, locomotor effects of the manipulations were assessed using the same viral parameters along with bilateral indwelling cannula.

[2] = system: NMDA or AMPA-mediated transmission; assay: VTA slice, NMDA or AMPA-mediated transmission; assay type: cell-based, mouse
Method: Electrophysiology. Preparation of Brain slices: Mice (8-10 weeks) were injected AAV10 HaloTag™-dTomato to striatum or ventral tegmental area (VTA). After 3-5 weeks, mice were deeply anesthetized with isoflurane and euthanized by decapitation. Coronal brain slices ([…]) containing striatum or VTA were prepared by standard methods using a Vibratome (Leica, VT 1200S), in ice-cold high sucrose cutting solution containing (in mM) 220 sucrose, 3 KCl, 1.25 NaH2PO4, 25 NaHCO3, 12 MgSO4.7H2O, 10 glucose, and 0.2 CaCl2) bubbled with 95% O2 and 5% CO2. […]
Whole-cell patch-clamp recording: The brain slices or retinas were perfused with bubbled aCSF at 29-30° C. with a 2 ml/min flow rate. […] Series resistance was monitored using 5-10 mV hyperpolarizing step throughout the experiment, and cells were discarded if series resistance changed more than ˜15% during the experiment. […] Statistical significance was determined using Student's t or one-way or two-way ANOVA tests. eIPSCs or eEPSCs decay time constants were obtained by fitting a single-exponential function, I(t)=I exp(−t/T)+ISS, where I(t) is the amplitude of the current at time t and ISS is the steady-state current, I is instantaneous current subtracted from Iss, and t is the time constant of decay. […]

Row | SMILES | impact on locomotion ([1]; VTA dopamine neurons) | antagonism of the AMPAR in slice [2] | running / locomotor speed, +HTP mice [1] | running / locomotor speed, +HTP mice ([1]; listed as gabazine.7^DART.2) | running / locomotor speed, ddHTP mice [1] | running / locomotor speed, ddHTP mice ([1]; listed as gabazine.7^DART.2) | impact on NMDA or AMPA-mediated transmission ([2]; +HTP cells)
1 | COc1cc(CCCCl)ccc1CCOCCNC(=O)c1ccc(CNC(=O)CCOCCOCCOCCOCCOCCOCCOCCOCCOCCOCCOCCOCCOCCOCCOCCOCCOCCOCCOCCOCCOCCOCCOCCOCCOCCOCCOCCOCCOCCOCCOCCOCCOCCOCCOCCOCCn2cc(COCCOCCOCCOCCOCCOCCNC(=O)CCCn3c(=O)c(=O)[nH]c4cc([N+](=O)[O-])c(-n5ccnc5)cc43)nn2)cc1 [YM90K.1DART.2] | no impact on locomotion | potent antagonism of the AMPAR |  |  |  |  | 
2 | COc1cc(CCCCl)ccc1CCOCCNC(=O)c1ccc(CNC(=O)CCOCCOCCOCCOCCOCCOCCOCCOCCOCCOCCOCCOCCOCCOCCOCCOCCOCCOCCOCCOCCOCCOCCOCCOCCOCCOCCOCCOCCOCCOCCOCCOCCOCCOCCOCCOCCn2cc(COCCOCCOCCOCCOCCOCCOCCCCCCOc3ccc(-c4nn(CCCCC(=O)O)c(=N)cc4C)cc3)nn2)cc1 [gabazine.7DART.2] |  |  | significant increase in running speed | increased locomotor speed | no impact in ^ddHTP animals | not in ^ddHTP control mice | no impact on NMDA or AMPA-mediated transmission
